Source: a melting point compilation (Tetko et al.; mined from patent text by program, amines drawn as free bases though some values may be those of a salt)

SMILES | melting point [°C]
CCSCc1c(CCN(C)C)[nH]c2ccccc12 | 59 to 61
CCOC(=O)c1ncn2c3ccccc3c(=O)n(C)c12 | 211 to 212
CN(C)CCNc1ccc(O)c2c1C(=O)c1c(Cl)ccc(Cl)c1C2=O | 125 to 130
COC(=O)c1ccc2c(=O)n(CC(C)C)c(CNC(=O)OC(C)(C)C)c(-c3ccc(C)cc3)c2c1 | 193 to 194
CN1CCN(c2nc3sc4c(NCCN5CCOCC5)ncnc4c3c3c2CCC(C)(C)C3)CC1 | 150 to 151
Clc1ccc2[nH]c3c(Cl)nc4ccccc4c3c2c1 | 250
CCN(C(=O)CC(OC)(C(F)(F)F)C(F)(F)F)c1cn(-c2cccnc2)nc1C | 83 to 86
COc1ccc(N2CCN(c3ccc(-n4ccn(CC(F)(F)F)c4=O)cc3)CC2)cc1 | 224
CC(=O)Nc1ccccc1-c1ccn[nH]c1=O | 235 to 236
CCn1nc(-c2ccccc2)c(C(C)=O)c(Nc2cc(C)no2)c1=O | 178 to 179
O=C(c1ccc(-c2ccccc2)cc1)C(Br)CC(=O)N1CCC[C@H]1C(=O)O (some centres not stated) | 131 to 133
OC(Cc1ccc(Cl)cc1Cl)(Cn1cnnc1)c1ccc(-c2ccccc2)cc1 (configuration not stated) | 260
NC(=O)c1cc(NCc2ccccc2Cl)c([N+](=O)[O-])cc1[N+](=O)[O-] | 158 to 161
O=C(c1ccccc1)n1cc(-c2ccccc2)c2ccccc21 | 154 to 156
CCOc1cc(Oc2cc(C)[nH]n2)ccc1[N+](=O)[O-] | 123 to 124
CCCCCCCCCCCCOC(=O)c1ccc(Cl)c(N)c1 | 58.3 to 59.5
C#CCOc1cc(Oc2ccccc2)ncn1 | 71.1
CC(C)S(=O)(=O)N1CCC2(CC1)OCCO2 | 66 to 67
O=C(C1=Cc2ccccc2C1)c1ccc(OC(F)(F)F)cc1 | 115 to 117
O=C(OCc1ccccc1)N1CCN(CCN2C(=O)c3ccccc3C2=O)CC1 | 89.5 to 90.5
CC(C)(C)OC(=O)N1CCC[C@H](O)[C@H](NC(=O)c2ccc(OC(C)(C)C)cc2)C1 | 132
C=C(C)C(=O)OCCNC(=O)Oc1cccc(OC(=O)c2ccccc2)c1 | 57.5 to 61.5
CC1(C)OC(=O)Nc2ccc(-c3cccc(F)c3F)cc21 | 166 to 167
CC(=O)Oc1ccc(/C=C/c2cccc(OC(C)=O)c2)cc1 | 124 to 125
COc1ccc(C2=NN(CCO)C(=O)[C@H]3CCCC[C@@H]23)cc1OC (relative stereo) | 128 to 129
CC(C)(Oc1ccc(CCC(=O)c2ccc(-c3ccc(C(F)(F)F)cc3)s2)c(Cl)c1Cl)C(=O)O | 153 to 154

SMILES | melting point [°C]
COc1cc(OC)c2c3c(n(Cc4ccccc4)c2c1)CCCC3C(N)=O (configuration not stated) | 190 to 192
COc1ccc(P2(=O)c3ccccc3CN2c2ccccc2)cc1 (configuration not stated) | 190 to 192
Oc1nnc(-c2ccc(CN3CCCCCC3)s2)o1 | 117 to 119
CNC(=O)CN1CCc2cc(Nc3ncc(Cl)c(N[C@H]4[C@@H](C(N)=O)[C@@H]5C=C[C@H]4C5)n3)c(OC)cc2CC1 | 135 to 145
COc1ccc2c(c1)c(C)cc(=O)n2-c1ccc(Cl)cc1 | 234 to 235
NC(=O)COc1ccc2sc(S(N)(=O)=O)cc2c1 | 197 to 198
CCOC(=O)CSc1nc(Cl)cc(NN=Cc2ccc(F)cc2)n1 | 146 to 149
CC1(C)CCCC2(C)CC12/C=C/C(=O)N1CCN(C(N)=O)CC1 (configuration not stated) | 166 to 168
CSc1ccc(C)cc1[N+](=O)[O-] | 71 to 73
CC(C)(C)c1cc(CCc2ccccc2NC(=O)NCC(C)(C)c2cccc(F)c2)cc(C(C)(C)C)c1O | 165 to 166
COc1ccc2nc3cc(N4CCN(C)CC4)c(=O)cc-3sc2c1 | 208 to 209
Cc1cc(C2(O)C(=O)c3ccccc3C2=O)c(C)cc1O | 228 to 230
O=C(c1ccc(S(=O)(=O)Cl)cc1)c1cccs1 | 118
COC(=O)C(C)N(C(=O)CF)c1c(C)cccc1Cl (configuration not stated) | 101 to 103
CCC([O-])=C(C(=O)OC)N1C(=O)CC1[N+](CC)(CC)CC (configuration not stated) | 109 to 110
Cc1noc(NS(=O)(=O)c2cccc3c(NC(=O)C(C)C)cccc23)c1C | 177 to 180
COc1ccc(/C=C/c2nc3c([nH]2)c(=O)n(C)c(=O)n3C)cc1Br | > 280
O=C(Nc1ccc(Cc2ccc(O)c(O)c2)cc1)C1CSc2ccccc2C1=O (configuration not stated) | 216 to 218
CCC(C)Nc1c(-c2ccc(OC)cc2Cl)c(Cl)nc2ncnn12 (configuration not stated) | 116
CC(=O)Oc1c(C(=O)N2CCc3ccccc32)c(=O)n2c3c(cc(N)cc13)OCC2 | 220 to 225
N#Cc1ccc2nc(C(O)(Cn3cncn3)c3ccc(F)cc3F)sc2c1 (configuration not stated) | 170 to 172
CCC(CC)(CC(=O)Nc1cccc(SCc2ccc3ccc(F)cc3n2)c1)C(=O)O | 70 to 71
NC(=O)c1c(F)ccc(OCc2ccc3sccc3c2)c1F | 146 to 148
COC(=O)C1C(=O)Nc2ccc(C(F)(F)F)cc2CC1c1ccc(OC)cc1 (configuration not stated) | 161 to 163
CC(=O)OCC1=C(C(=O)O)N2C(=O)C(NC(=O)Cn3ccnc3S(C)(=O)=O)C2SC1 (configuration not stated) | 223
COc1cc2c(cc1CCNC(=O)c1cc(OC)c(OC)c(OC)c1)CCC2 | 144 to 145
